Data set [1] relates to human breast carcinoma cell line MT-3. Nature of the data set: Efficacy in mice: MT-3 breast xenografts on nude mice. It counts as in vivo, NMRI nude female mice. Conditions: 4 mg/kg/inj. weekly i.v.; treated tumors divided with control tumors; Cisplatin at day 31, LiPlaCis at day 26. As for the experimental part: NMRI nude female mice (6-8 weeks) were inoculated subcutaneously into the left flank with 1*10^7 cells of the human breast carcinoma cell line MT-3. Only mice carrying exponentially growing tumors were selected for the study. […] Tumor growth was assessed three times a week by measuring two perpendicular diameters and tumor growth was normalized for differing starting sizes by calculating relative tumor volume. Body weight was measured three times a week. Blood samples were taken four days after the first injection to estimate white blood cells and thrombocytes by Coulter counter.

The conditions of data set [2]: comparison value for cisplatin, within 3 hours; cited from earlier work.

SMILES strings stand for the structures.

Turning to `N.N.[Cl][Pt][Cl]` [Cisplatin, cisplatin], in data set [1], the “Optimum T/C (%) [at day]” value is given as 71%. For the same molecule, in data set [2], the urinary excretion result is given as “above 90%”.

The values are drawn from patent US11207269B2, “Medical use of sPLA2 hydrolysable liposomes” (priority 2009, dated 2021).
